This experiment deals with HBV. The experiment can be described thus: HBV replication inhibition assay (BDNA assay) in HepG2.2.15 cells. The experiment is classed as cell-based. Conditions: Hepatitis B virus, HepG2.2.15, HBV replication assay (BDNA assay), HepG2.2.15 cells; read-out: DNA EC50. In a few lines:
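Supernatant encapsidated HBV DNA was measured by bDNA after DNase digestion and proteinase K release. Stably HBV-integrated HepG2.2.15 cells had two 3-day compound exposures (0.5% DMSO). Signals were background-subtracted and normalized to DMSO wells, and EC50 was obtained by four-parameter fit.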

Structures are written as SMILES.

As a reminder, the EC50 is the concentration at which the effect is half-maximal. As to `C[C@@H]1Cc2nn3c(c2CN1C(=O)Nc1ccc(F)c(C#N)c1)C(=O)N(C)N=C(COCC(F)F)C3` [Compound 237, (R)-N-(3-cyano-4-fluorophenyl)-4-((2,2-difluoroethoxy)methyl)-2,9-dimethyl-1-oxo-1,2,5,8,9,11-hexahydro-10H-pyrido[4′,3′:3,4]pyrazolo[5,1-d][1,2,5]triazepine-10-carboxamide], the EC50 lay in the range of 1 to 100 nM.

On to `C[C@@H]1Cc2nn3c(c2CN1C(=O)Nc1ccc(F)c(C(F)(F)F)c1)C(=O)N(C)N=C(COCC(F)F)C3` [Compound 238, (R)-4-((2,2-difluoroethoxy)methyl)-N-(4-fluoro-3-(trifluoromethyl)phenyl)-2,9-dimethyl-1-oxo-1,2,5,8,9,11-hexahydro-10H-pyrido[4′,3′:3,4]pyrazolo[5,1-d][1,2,5]triazepine-10-carboxamide], for which the EC50 was 100 to 500 nM.

(Values after patent publication US10987359B2, “Oxadiazepinone derivatives and methods of treating hepatitis B infections” (priority 2016, dated 2021).)
